Results published in ChEMBL document CHEMBL1221387, “Prenylflavonoids from Glycyrrhiza uralensis and their protein tyrosine phosphatase-1B inhibitory activities” (Bioorg Med Chem Lett, 2010).
Activity calls are given as the source filed them. The rule behind the calls is not given here.

Biological target: T1, Tyrosine-protein phosphatase non-receptor type 1 (Homo sapiens) (UniProt P18031)
T1 sequence (whole entry): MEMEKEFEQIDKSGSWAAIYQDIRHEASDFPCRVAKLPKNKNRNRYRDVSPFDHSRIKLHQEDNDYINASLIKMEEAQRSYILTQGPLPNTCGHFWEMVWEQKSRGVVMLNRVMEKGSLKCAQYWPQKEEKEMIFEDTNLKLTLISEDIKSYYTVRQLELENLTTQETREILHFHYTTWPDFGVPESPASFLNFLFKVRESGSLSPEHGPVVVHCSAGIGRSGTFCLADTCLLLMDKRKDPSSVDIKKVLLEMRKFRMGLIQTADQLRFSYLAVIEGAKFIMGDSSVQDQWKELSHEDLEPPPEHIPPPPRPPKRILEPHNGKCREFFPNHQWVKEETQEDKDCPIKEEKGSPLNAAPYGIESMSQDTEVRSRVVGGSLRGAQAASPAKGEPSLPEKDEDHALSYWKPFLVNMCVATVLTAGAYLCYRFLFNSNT
Assay: Mixed type inhibition of human recombinant PTP1B at 30 uM by Lineweaver-Burke plot analysis

inhibition: Active
Compound: COc1cc(O)cc2occ(-c3cc(O)c(O)c(CC=C(C)C)c3)c(=O)c12
